Test results reported in publication PMC4191062, “Development of αGlcN(1↔1)αMan-Based Lipid A Mimetics as a Novel Class of Potent Toll-like Receptor 4 Agonists” (Journal of Medicinal Chemistry, 2014).

Experiments:
THP-1 cells = experiment: Cytokine expression (TNF-α, IL-8, MCP-1; ELISA) in TPA-differentiated THP-1 macrophage-like cells; format: cell-based, human; details: for activation of the MyD88 signaling pathway compared to Re-LPS/LPS: THP-1; for potency in induction of expression of IL-8 compared to Re-LPS/LPS / potency in induction of expression of TNF-α compared to Re-LPS/LPS: dose-dependent
Description: Lipid A mimetics 1–3 were examined for the ability to initiate the expression of tumor necrosis factor-α (TNF-α), interleukin-8 (IL-8), and monocyte chemotactic protein-1 (MCP-1) in the human monocytic macrophage-like cell line THP-1, which expresses MD-2, CD14, and a variety of cell surface receptors, including TLR4.
THP-1 cells were grown in RPMI-1640 cell-culture medium (Life Technologies) that was supplemented with 2 mM L-glutamine, 100 U/mL penicillin, 100 μg/mL streptomycin, and 10% FCS. Cells were seeded in a 96-well plate at 10^5 cells/well in 150 μL of complete medium and stimulated by 200 nM TPA for 24 h to induce the differentiation into macrophage-like cells.[59] […] Cells were stimulated with α,α-GM-LAMs 1–3 at the indicated concentration and with E. coliRe-LPS (or E. coli O111:B4 LPS), which were added as solutions in 10 μL of complete medium. The total volume of the well after stimulation reached 220 μL. The cells were incubated for 18 h, and the supernatants were analyzed for TNF-α, IL-8, and MCP-1 by ELISA (BD Biosciences).
Supplementary SI-Figure 2
E. coli wild type O111:B4 LPS is a large heterogeneous molecule with molecular weight (MW) comprising 10-15 kDa. Since we were particularly interested in the molecular recognition mechanisms implicated in the binding of LPS by the MD-2∙TLR4 complex wherein the Lipid A/Re-LPS (MW 1.8/2.2 kDa, respectively) portion of LPS is mostly involved, we have analyzed the dose-dependent THP-1 cells activation by synthetic α,α-GM-LAM 1-3 (at the concentrations 0.1 – 300 ng/ml) compared to E. coli Re-LPS which is more appropriate in this instance. Since the divergences in the expression of different cytokines by E. coli LPS vs. Re-LPS are only scarcely reported in the literature, we have performed dose-dependent activation experiments comparing expression of TNF-α, IL-8 and MCP-1 by E. coli O111:B4 LPS and E. coli Re-LPS at the concentrations 0.4 – 100 nM. Wild-type LPS (MW 10 […]
range (0.4 – 10 nM), whereas at the concentrations above 10 nM (50 nM for MCP-1) the levels of cytokines […]
This might be explained by a different aggregation state of Re-LPS and wild type LPS, and, therefore, the alterations in the transfer of a single LPS molecule to TLR4∙MD-2 complex by LBP and CD-14. Higher MW (> 10 kDa) of the LPS molecule applied for the calculations of the concentrations in [nM] would result in the shift of the activation profile induced by wild-type LPS. Calculation of EC50 values were hardly possible, since the maximum TLR4 saturation levels were not achieved at the concentrations tested.
SI-Figure 2. Dose-dependent expression of pro-inflammatory cytokines TNF-α, IL-8 and MCP-1 in human macrophage cell line THP-1 by E. coli Re-LPS compared to E. coli wild-type O111:B4 LPS. (A) Comparative expression of TNF-a; (B) comparative expression of IL-8; (C) comparative expression of MCP-1 […]
(1 picture or pasted object on this page, not shown here)
Supplementary SI-Figure 3
Dose-dependent responses (THP-1 cells: α,α-GM-LAM 1-3 and Re-LPS) at the concentration range 0.4 – 100 ng/ml which are presented in the Figure 5, were extended to the higher concentration range (up to 300 ng/ml).
SI-Figure 3. Dose-dependent expression of cytokines induced by α,α-GM-LAM 1-3 in macrophage cell line THP-1 compared to E. coli Re-LPS at the concentration range 0.4 – 300 ng/ml. (A) Production of TNF-α; (B) Induction of […]
Supplementary SI-Figure 4
Lipid A mimetic 1 was examined for the activation of NF-κB (Nuclear factor kappaB) and IRF3
(Interferon regulatory factor 3). IRF3 activation […]
noticeable after 1h stimulation, though was
LPS. At 1h stimulation the α,α-GM-LAM 1 was […]
whereas at 3h simulation compound 1 (at a […]
stronger phosphorylation of IκBa (P-IκBa levels) as well as the higher levels of IκBa (reflecting the NF-κB dependent re-synthesis of IκB following its
Thus, IRF3 activation and NF-κB activation […]
degradation and its NF-κB dependent resynthesis) […]
compared to LPS after 3h stimulation. […]

[1] = tested on: bone marrow-derived macrophages (BMDM); experiment: TNF-α and IL-6 production in mouse bone marrow-derived macrophages (ELISA); format: cell-based, C57BL/6J mice; details: mBMDM
Description: The ability of Lipid A mimetics 1–3 to induce the production of TNF-α and IL-6 from bone marrow-derived macrophages (BMDM) in mice was subsequently examined and compared to that of synthetic E. coli Lipid A and E. coli MPLA, which are reliable positive controls due to their chemical purity and homogeneity (Figure 6). […] Likewise, 1 nM (1.8 ng/mL) of 1 or 2 triggered the release of a 3-fold higher amount of IL-6 (1500 pg/mL) compared to Lipid A (500 pg/mL).
Bone-marrow-derived microphages (BMDMs) were isolated and differentiated from the bone marrow of C57BL/6J mice. The bone marrow was flushed from femur and fibia with RPMI media. The erythrocytes were lysed with 0.88% ammonium chloride, 15 min at 37 °C. A single-cell suspension of the bone marrow cells was then seeded in cell culture flasks at a concentration of 1 × 10^6 cells/mL in RPMI supplemented with 20% FBS and 40 ng/mL recombinant M-CSF. The cell culture medium was changed on day 3. On day 6, the differentiated cells were trypsinized, counted, and seeded in 24-well plates at a concentration of 1 × 10^6 cells/mL in RPMI supplemented with 10% FBS. After 24 h, the cells were stimulated with Lipid A mimetics 1–3 and with synthetic E. coli Lipid A/MPLA (E. coli O111:B4 LPS was used as positive control) for 16 h. The nanomolar concentrations of 1–3 were calculated according to the MW of the synthetic compounds. The supernatants were then tested for cytokines using Ready-Set-Go ELISA kits (eBioscience).

human dendritic cells = experiment: Cytokine production in human monocyte-derived dendritic cells (Luminex); format: cell-based; details: hDCs, 24 h
Description: Activated DCs were examined for the production of pro-inflammatory cytokines TNF-α, IL-6, and IL-12, which contribute to the modulation of the T cell response and innate effector functions.[57] The release of TNF-α and IL-6 reached nearly maximum levels (attained with 10 ng/mL LPS) at the α,α-GM-LAM 1 concentration of 1 ng/mL (Figure 7A).
Human peripheral blood monocytes were cultured for 6 days in GM-CSF and IL-4 to receive immature monocyte-derived DCs and were then stimulated with the indicated concentrations of 1 and 3 using 10 ng/mL LPS as positive control (solutions in PRMI containing 10% FCS and 0.005–0.01% DMSO). The amounts of IL-6, IL-12, IL-10, and TNF-α in the supernatants of the cells were analyzed after 24 h by Luminex. Results are representative of three independent experiments for 1 and of two experiments for 3. Mean values of duplicate examinations ± SD are presented.

CCCCCCCCCCCCCC(=O)O[C@H](CCCCCCCCCCC)CC(=O)O[C@@H]1[C@@H](NC(=O)C[C@@H](CCCCCCCCCCC)OC(=O)CCCCCCCCCCC)[C@@H](O[C@H]2O[C@H](COP(=O)(O)O)[C@@H](OC(=O)C[C@@H](CCCCCCCCCCC)OC(=O)CCCCCCCCCCC)[C@H](O)[C@@H]2OC)O[C@H](CO)[C@H]1OP(=O)(O)O [Compound 1, 4-O-[(R)-3-(Dodecanoyloxy)tetradecanoyl]-2-O-methyl-6-O-phosphoryl-α-D-mannopyranosyl-(1↔1)-2-deoxy-2-[(R)-3-(dodecanoyloxy)tetradecanoylamino]-4-O-phosphoryl-3-O-[(R)-3-(tetradecanoyloxy)tetradecanoyl]-α-D-glucopyranoside]
activation of the MyD88 signaling pathway compared to Re-LPS/LPS (THP-1 cells): more potent activators
potency in induction of expression of IL-8 compared to Re-LPS/LPS (THP-1 cells; THP-1, 18 h): higher potency
potency in induction of expression of TNF-α compared to Re-LPS/LPS (THP-1 cells; THP-1, 18 h): higher potency
fold higher amount of IL-6 compared to Lipid A ([1]; 1 nM): 3 fold
concentration at which release of TNF-α and IL-6 reached nearly maximum levels (attained with 10 ng/mL LPS) (human dendritic cells): 1 ng/mL
expression of IL-12 (human dendritic cells): efficiently induced

CCCCCCCCCCCCCC(=O)O[C@H](CCCCCCCCCCC)CC(=O)O[C@@H]1[C@@H](NC(=O)C[C@@H](CCCCCCCCCCC)OC(=O)CCCCCCCCCCC)[C@@H](O[C@H]2O[C@H](COP(=O)(O)O)[C@@H](OC(=O)C[C@@H](CCCCCCCCCCC)OC(=O)CCCCCCCCC)[C@H](O)[C@@H]2OC)O[C@H](CO)[C@H]1OP(=O)(O)O [Compound 2, 4-O-[(R)-3-(Decanoyloxy)tetradecanoyl]-2-O-methyl-6-O-phosphoryl-α-mannopyranosyl-(1↔1)-2-deoxy-2-[(R)-3-(dodecanoyloxy)tetradecanoylamino]-4-O-phosphoryl-3-O-[(R)-3-(tetradecanoyloxy)tetradecanoyl]-α-D-glucopyranoside]
activation of the MyD88 signaling pathway compared to Re-LPS/LPS (THP-1 cells): more potent activators
release of MCP-1 compared to Re-LPS and compound 1 (THP-1 cells; THP-1, 18 h): clearly more effective
potency in induction of expression of IL-8 compared to Re-LPS/LPS (THP-1 cells; THP-1, 18 h): higher potency
potency in induction of expression of TNF-α compared to Re-LPS/LPS (THP-1 cells; THP-1, 18 h): higher potency
fold higher amount of IL-6 compared to Lipid A ([1]; 1 nM): 3 fold

CCCCCCCCCCCCCC(=O)O[C@H](CCCCCCCCCCC)CC(=O)O[C@@H]1[C@@H](NC(=O)C[C@@H](CCCCCCCCCCC)OC(=O)CCCCCCCCCCC)[C@@H](O[C@H]2O[C@H](CO)[C@@H](OC(=O)C[C@@H](CCCCCCCCCCC)OC(=O)CCCCCCCCCCC)[C@H](O)[C@@H]2OC)O[C@H](CO)[C@H]1OP(=O)(O)O [Compound 3, 4-O-[(R)-3-(Dodecanoyloxy)tetradecanoyl]-2-O-methyl-α-D-mannopyranosyl-(1↔1)-2-deoxy-2-[(R)-3-(dodecanoyloxy)tetradecanoylamino]-4-O-phosphoryl-3-O-[(R)-3-(tetradecanoyloxy)tetradecanoyl]-α-D-glucopyranoside]
induction of the expression of cytokines (THP-1 cells; THP-1, TNF-α, IL-8, MCP-1): dampened induction
expression level of IL-6 ([1]; 1 nM): only marginal expression level
IL-6 release compared to MPLA ([1]; concentrations above 1 nM): higher IL-6 release than MPLA
release of TNF-α, IL-6, and IL-10 compared to 1 (human dendritic cells): less efficient
